Assay [1] deals with ceramide synthase 1 (CerS1). The following applies: mice fed with high-fat diet; cited from earlier work.
Assay [2] concerns the target T1, human PD1-PDL1 interaction (Homo sapiens, UniProt Q9NZQ7).
T1 construct: purchased Perkin Elmer
The experiment in a line: HTRF human PD1-PDL1 binding assay. The following applies: for IC50: dose–response 0–100 µM. The text has this:
The homogeneous time-resolved fluorescence (HTRF) binding assay was used to test these top 20 molecules for their potential blockade of human PD1-PDL1 interaction. We have previously established the utility of the HTRF assay over similar homogenous assay like AlphaLISA, with the latter proving to be more promiscuous in identifying potential false positives against PD1-PDL1 target.
The potential activity of our virtual hits in inhibiting PD1-PDL1 interaction was investigated using the homogeneous time-resolved fluorescence (HTRF) binding assay from Perkin Elmer. The assay was carried out according to the manufacturer’s instructions using the HTRF protocol in BioTek Synergy Neo^TM microplate reader. […] The assay mixture with only PDL1 protein, but not PD1 protein served as a negative control denoting 0% PD1-PDL1 interaction. […] The dose–response data were analyzed using GraphPad Prism to determine IC50 values using nonlinear regression variable slope models.
In general terms: Time-resolved FRET reads energy transfer from a long-lived donor to a nearby acceptor.

Assay [3] deals with PD1-PDL1 interaction. Details: method as in PMID 34117723. Conditions: read-out: IC50, PD1-PDL1 inhibitor; cited from earlier work.
For assay [4], the target named is protein kinase D (PKD). Further details: method as in PMID 20497126. Conditions: VEGF-treated endothelial cells; read-out: IC50 against all three PKD isoforms; cited from earlier work.
Assay [5] addresses T1, human PD1-PDL1 interaction. The following applies: Table S1; ref BMS Patent 1: WO2015034820A1; cited from earlier work.
The mark [6] stands for this setting: 25 µM single-dose test concentration.

Structures are written as SMILES. Values joined by “and” are separate entries in the source; they are usually repeats but may differ in a detail not shown here. Equal entries are not always repeated.

T1 sequence (Q9NZQ7 19-238 limits assumed): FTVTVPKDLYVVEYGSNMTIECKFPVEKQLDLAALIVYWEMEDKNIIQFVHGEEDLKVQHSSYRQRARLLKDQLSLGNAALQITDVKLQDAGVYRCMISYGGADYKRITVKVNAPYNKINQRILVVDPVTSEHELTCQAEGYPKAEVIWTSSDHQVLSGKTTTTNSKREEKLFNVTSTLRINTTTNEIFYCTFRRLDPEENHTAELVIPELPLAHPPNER

`C[C@@](N)(CO)CCc1ccc(OCc2ccc(Cl)c(Cl)c2)cc1` [Compound 2]: the “fatty acid oxidation in skeletal muscles” value in assay [1] is recorded as “increased fatty acid oxidation”. In assay [2] (setting [6]), the “% PD1-PDL1 Inhibition” value came to 41.4 ± 0.9%. For the same compound, the IC50 (as a rule, the concentration that gives 50% inhibition) is about 33.6 µM in assay [2] and 33.6 µM in assay [2] (listed as P053).

Regarding `Cc1cc(/C=C/c2ccc3cc(N(C)C)ccc3[n+]2C)c(C)n1-c1ccccc1` [Pyrvinium], the IC50 in assay [3] was about 29.7 µM.

Consider `Cc1c(COc2ccc(CN3CCCCC3C(=O)O)cc2Br)cccc1-c1ccccc1` (centres unmarked) [Compound 18], for which the inhibition (usually the drop in the measured response relative to a control, in per cent) at 25 µM in assay [2] (setting [6]) was -4.4 ± 1.2%.

Turning to `CCOc1ccc2cc(-c3cc(-c4cccc(C(=O)NCCN(C)C)c4)cnc3N)ccc2c1` [Compound 1], the IC50 is 0.001 to 0.002 µM in assay [4]; ~22 µM and ~22.4 µM in assay [2]; 22.4 µM in assay [2] (listed as CRT5). Also, the “% PD1-PDL1 Inhibition” value in assay [2] (setting [6]) came out at 50.9 ± 1.3%.

With `COc1cc(OCc2cccc(-c3ccccc3)c2C)cc(OC)c1CN1CCCC[C@H]1C(=O)O` [Compound 1--1], the “Activity (classification used for ML modeling)” value in assay [5] is “ACTIVE”.

(Values after paper PMC9145945, “Machine-Learning Guided Discovery of Bioactive Inhibitors of PD1-PDL1 Interaction” (Pharmaceuticals, 2022).)
